Laboratory results: the supplement of paper PMC10307832

What was measured:
Experiment in all cases: relative viability (nuclei count vs DMSO), 5 days (fraction); higher = more cells survive
A-427 = tested on: A-427
Outline: (§1)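 Lung cancer cell lines, seeded in 1536-well plates, were treated the following day by pin tool with a single drug or with five library-drug doses (not always all listed) in √10 steps on top of a fixed anchor-drug dose. Cells were fixed and nuclei stained in one step after 5 days, and nuclei were counted. Relative viability is the nuclei count for treated wells divided by that for vehicle wells, reported as medians of duplicate plates.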

COR-L 105 = tested on: COR-L 105
Outline: as §1

H3255 = tested on: H3255
Outline: as §1

HCC-44 = tested on: HCC-44
Outline: as §1

HCC-827 = tested on: HCC-827
Outline: as §1

LOU-NH91 = tested on: LOU-NH91
Outline: as §1

LXF-289 = tested on: LXF-289
Outline: as §1

NCI-H1792 = tested on: NCI-H1792
Outline: as §1

NCI-H1793 = tested on: NCI-H1793
Outline: as §1

NCI-H1915 = tested on: NCI-H1915
Outline: as §1

NCI-H1944 = tested on: NCI-H1944
Outline: as §1

NCI-H1975 = tested on: NCI-H1975
Outline: as §1

NCI-H1993 = tested on: NCI-H1993
Outline: as §1

NCI-H2023 = tested on: NCI-H2023
Outline: as §1

NCI-H2087 = tested on: NCI-H2087
Outline: as §1

NCI-H2170 = tested on: NCI-H2170
Outline: as §1

NCI-H358 = tested on: NCI-H358
Outline: as §1

NCI-H520 = tested on: NCI-H520
Outline: as §1

SK-MES-1 = tested on: SK-MES-1
Outline: as §1

SW 1573 = tested on: SW 1573
Outline: as §1

Work on `Cc1csc(=NC2CCCCC2)n1/N=C/c1ccc(O)c(O)c1O` [MIM1] + CS(=O)(=O)CCNCc1ccc(-c2ccc3ncnc(Nc4ccc(OCc5cccc(F)c5)c(Cl)c4)c3c2)o1 [Lapatinib] (partner 2 µM) yielded a relative viability (A-427; first compound 0.2 µM) of 1.05, a relative viability (A-427; first compound 0.6325 µM) of 1.05 and a relative viability (A-427; first compound 2 µM) of 0.868. The relative viability (A-427; first compound 6.325 µM) was 0.841, the relative viability (A-427; first compound 20 µM) was 0.265 and the relative viability (COR-L 105; first compound 0.2 µM) was 0.371. For the same compound, the relative viability (COR-L 105; first compound 0.6325 µM) was 0.331, the relative viability (COR-L 105; first compound 2 µM) was 0.373 and the relative viability (COR-L 105; first compound 6.325 µM) was 0.319. For the same compound, the relative viability (COR-L 105; first compound 20 µM) was 0.294, the relative viability (H3255; first compound 0.2 µM) was 0.274 and the relative viability (H3255; first compound 0.6325 µM) was 0.208. It also gave a relative viability (H3255; first compound 2 µM) of 0.242, a relative viability (H3255; first compound 6.325 µM) of 0.22 and a relative viability (H3255; first compound 20 µM) of 0.198. The relative viability (HCC-44; first compound 0.2 µM) was 1.07, the relative viability (HCC-44; first compound 0.6325 µM) was 0.969 and the relative viability (HCC-44; first compound 2 µM) was 0.798. The relative viability (HCC-44; first compound 6.325 µM) was 0.346, the relative viability (HCC-44; first compound 20 µM) was 0.128 and the relative viability (HCC-827; first compound 0.2 µM) was 0.21. For the same compound, the relative viability (HCC-827; first compound 0.6325 µM) was 0.181, the relative viability (HCC-827; first compound 2 µM) was 0.198 and the relative viability (HCC-827; first compound 6.325 µM) was 0.179. For the same compound, the relative viability (HCC-827; first compound 20 µM) was 0.248, the relative viability (LOU-NH91; first compound 0.2 µM) was 0.744 and the relative viability (LOU-NH91; first compound 0.6325 µM) was 0.8. For the same compound, the relative viability (LOU-NH91; first compound 2 µM) was 0.645, the relative viability (LOU-NH91; first compound 6.325 µM) was 0.625 and the relative viability (LOU-NH91; first compound 20 µM) was 0.362. For the same compound, the relative viability (LXF-289; first compound 0.2 µM) was 0.868, the relative viability (LXF-289; first compound 0.6325 µM) was 0.802 and the relative viability (LXF-289; first compound 2 µM) was 0.895. The relative viability (LXF-289; first compound 6.325 µM) was 0.664, the relative viability (LXF-289; first compound 20 µM) was 0.592 and the relative viability (NCI-H1792; first compound 0.2 µM) was 0.861. For the same compound, the relative viability (NCI-H1792; first compound 0.6325 µM) was 0.897, the relative viability (NCI-H1792; first compound 2 µM) was 0.983 and the relative viability (NCI-H1792; first compound 6.325 µM) was 0.527. It also gave a relative viability (NCI-H1792; first compound 20 µM) of 0.294, a relative viability (NCI-H1793; first compound 0.2 µM) of 0.768 and a relative viability (NCI-H1793; first compound 0.6325 µM) of 0.623. It also gave a relative viability (NCI-H1793; first compound 2 µM) of 0.645, a relative viability (NCI-H1793; first compound 6.325 µM) of 0.669 and a relative viability (NCI-H1793; first compound 20 µM) of 0.459. The relative viability (NCI-H1915; first compound 0.2 µM) was 0.996, the relative viability (NCI-H1915; first compound 0.6325 µM) was 0.659 and the relative viability (NCI-H1915; first compound 2 µM) was 0.82. The relative viability (NCI-H1915; first compound 6.325 µM) was 0.536, the relative viability (NCI-H1915; first compound 20 µM) was 0.357 and the relative viability (NCI-H1944; first compound 0.2 µM) was 0.889. The relative viability (NCI-H1944; first compound 0.6325 µM) was 0.805, the relative viability (NCI-H1944; first compound 2 µM) was 0.491 and the relative viability (NCI-H1944; first compound 6.325 µM) was 0.535. The relative viability (NCI-H1944; first compound 20 µM) was 0.445, the relative viability (NCI-H1975; first compound 0.2 µM) was 0.789 and the relative viability (NCI-H1975; first compound 0.6325 µM) was 0.796. For the same compound, the relative viability (NCI-H1975; first compound 2 µM) was 0.875, the relative viability (NCI-H1975; first compound 6.325 µM) was 0.537 and the relative viability (NCI-H1975; first compound 20 µM) was 0.395. For the same compound, the relative viability (NCI-H1993; first compound 0.2 µM) was 0.875, the relative viability (NCI-H1993; first compound 0.6325 µM) was 0.871 and the relative viability (NCI-H1993; first compound 2 µM) was 0.735. The relative viability (NCI-H1993; first compound 6.325 µM) was 0.87, the relative viability (NCI-H1993; first compound 20 µM) was 0.541 and the relative viability (NCI-H2023; first compound 0.2 µM) was 0.947. It also gave a relative viability (NCI-H2023; first compound 0.6325 µM) of 0.716, a relative viability (NCI-H2023; first compound 2 µM) of 0.683 and a relative viability (NCI-H2023; first compound 6.325 µM) of 0.253. For the same compound, the relative viability (NCI-H2023; first compound 20 µM) was 0.0707, the relative viability (NCI-H2087; first compound 0.2 µM) was 1.04 and the relative viability (NCI-H2087; first compound 0.6325 µM) was 0.85. For the same compound, the relative viability (NCI-H2087; first compound 2 µM) was 0.998, the relative viability (NCI-H2087; first compound 6.325 µM) was 0.602 and the relative viability (NCI-H2087; first compound 20 µM) was 0.511. For the same compound, the relative viability (NCI-H2170; first compound 0.2 µM) was 0.282, the relative viability (NCI-H2170; first compound 0.6325 µM) was 0.294 and the relative viability (NCI-H2170; first compound 2 µM) was 0.26. It also gave a relative viability (NCI-H2170; first compound 6.325 µM) of 0.267, a relative viability (NCI-H2170; first compound 20 µM) of 0.258 and a relative viability (NCI-H358; first compound 0.2 µM) of 0.506. The relative viability (NCI-H358; first compound 0.6325 µM) was 0.475, the relative viability (NCI-H358; first compound 2 µM) was 0.433 and the relative viability (NCI-H358; first compound 6.325 µM) was 0.36. For the same compound, the relative viability (NCI-H358; first compound 20 µM) was 0.303, the relative viability (NCI-H520; first compound 0.2 µM) was 0.823 and the relative viability (NCI-H520; first compound 0.6325 µM) was 0.691. It also gave a relative viability (NCI-H520; first compound 2 µM) of 0.924, a relative viability (NCI-H520; first compound 6.325 µM) of 0.691 and a relative viability (NCI-H520; first compound 20 µM) of 0.269. The relative viability (SK-MES-1; first compound 0.2 µM) was 0.479, the relative viability (SK-MES-1; first compound 0.6325 µM) was 0.441 and the relative viability (SK-MES-1; first compound 2 µM) was 0.504. For the same compound, the relative viability (SK-MES-1; first compound 6.325 µM) was 0.416, the relative viability (SK-MES-1; first compound 20 µM) was 0.617 and the relative viability (SW 1573; first compound 0.2 µM) was 1.07. For the same compound, the relative viability (SW 1573; first compound 0.6325 µM) was 1.15, the relative viability (SW 1573; first compound 2 µM) was 1.08 and the relative viability (SW 1573; first compound 6.325 µM) was 0.993. The relative viability (SW 1573; first compound 20 µM) was 0.83.
